In patent publication EP4635500A1, “THERAPEUTIC AGENT FOR BACTERIAL INFECTION” (Sumitomo Pharma Co., Ltd., priority 2022, dated 2024):
≈ marks a conversion by molar mass, not a printed value. Like-named read-outs stand apart in the source and are kept apart here.

Experiments:
Format in all cases: cell-based
Escherichia coli = assay: MIC, broth microdilution, standard strains and Japanese clinical isolates (Example 5, Table 4)
Enterobacter hormaechei = assay: as above; conditions: ATCCBAA2082; KUB4001 Enterobacter hormaechei ATCC BAA-2082, KPC-2
Enterobacter cloacae = assay: as above
P. aeruginosa = assay: MIC, broth microdilution, CDC/FDA Antibiotic Resistance Isolate Bank (Example 7, Tables 10, 15); conditions: for MIC: Pseudomonas aeruginosa, read-out: MIC

Which results are given for `C[C@@H](O)[C@H]1C(=O)N2C(C(=O)O)=C(S[C@@H]3CN[C@H](C(=O)N(C)C)C3)[C@H](C)[C@H]12` [MEPM, meropenem]?
MIC (Escherichia coli; ATCCBAA2340, KUB3148 Escherichia coli ATCC BAA-2340, KPC-3): 0.5 µg/mL (≈ 1.3 µM); MIC (Escherichia coli; ATCCBAA2452, KUB4005 Escherichia coli ATCC BAA-2452, NDM-1): 1 µg/mL (≈ 2.61 µM); MIC (Escherichia coli; ATCCBAA2469, KUB3149 Escherichia coli ATCC BAA-2469, NDM-1): 2 µg/mL (≈ 5.22 µM); MIC (Escherichia coli; ATCCBAA2471, KUB4007 Escherichia coli ATCC BAA-2471, NDM-6): 32 µg/mL (≈ 83.4 µM); MIC (Escherichia coli; ATCCBAA2523, KUB3150 Escherichia coli ATCC BAA-2523, OXA-48): 0.06 µg/mL (≈ 0.156 µM); MIC (Escherichia coli; KUB3151 Escherichia coli NCTC13476, IMP-1): 1 µg/mL (≈ 2.61 µM); MIC (Escherichia coli; KUB3605 Escherichia coli Clinical isolate, NDM-1): 32 µg/mL (≈ 83.4 µM); MIC (Enterobacter hormaechei): 16 µg/mL (≈ 41.7 µM); MIC (Enterobacter cloacae; ATCCBAA2341, KUB4002 Enterobacter cloacae ATCC BAA-2341, KPC-3): 16 µg/mL (≈ 41.7 µM); MIC (Enterobacter cloacae; KUB3165 Enterobacter cloacae Clinical isolate, IMP-34): 0.25 µg/mL (≈ 0.652 µM); MIC (Enterobacter cloacae; KUB3167 Enterobacter cloacae Clinical isolate, IMP-1): 0.25 µg/mL (≈ 0.652 µM); MIC (Enterobacter cloacae; KUB3168 Enterobacter cloacae Clinical isolate, carbapenemase genes -): 0.06 µg/mL (≈ 0.156 µM); MIC (Enterobacter cloacae; KUB3609 Enterobacter cloacae Clinical isolate, IMP-1): 16 µg/mL (≈ 41.7 µM); MIC (Enterobacter cloacae; KUB3610 Enterobacter cloacae Clinical isolate, IMP-1): 4 µg/mL (≈ 10.4 µM); MIC against 96 strains of P. aeruginosa MIC50 (P. aeruginosa; 96 strains of P. aeruginosa, β-lactamase inhibitor µg/mL in parentheses): 16 µg(mL); MIC (P. aeruginosa; KUB No. 57 (continued 90 in the 40th table r2), AR Bank #44 (continued 5), no carbapenemase gene): 64 µg/mL (≈ 167 µM); MIC (P. aeruginosa; KUB No. 5587, AR Bank #90, KPC-5): 32 µg/mL (≈ 83.4 µM); MIC (P. aeruginosa; KUB No. 5591, AR Bank #94, no carbapenemase gene): 16 µg/mL (≈ 41.7 µM); MIC (P. aeruginosa; KUB No. 5592, AR Bank #95, no carbapenemase gene): 8 µg/mL (≈ 20.9 µM); MIC (P. aeruginosa; KUB No. 5607, AR Bank #110, VIM-2): 64 µg/mL (≈ 167 µM); MIC (P. aeruginosa; KUB No. 5608, AR Bank #111, VIM-2): 32 µg/mL (≈ 83.4 µM); MIC (P. aeruginosa; KUB No. 5662, AR Bank #229, no carbapenemase gene): 32 µg/mL (≈ 83.4 µM); MIC (P. aeruginosa; KUB No. 5663, AR Bank #230, VIM-2): 64 µg/mL (≈ 167 µM); MIC (P. aeruginosa; KUB No. 5666, AR Bank #233, no carbapenemase gene): 16 µg/mL (≈ 41.7 µM); MIC (P. aeruginosa; KUB No. 5667, AR Bank #234, no carbapenemase gene): 2 µg/mL (≈ 5.22 µM); MIC (P. aeruginosa; KUB No. 5668, AR Bank #235, no carbapenemase gene): 16 µg/mL (≈ 41.7 µM); MIC (P. aeruginosa; KUB No. 5669, AR Bank #236, no carbapenemase gene): 2 µg/mL (≈ 5.22 µM); MIC (P. aeruginosa; KUB No. 5670, AR Bank #237, no carbapenemase gene): 2 µg/mL (≈ 5.22 µM); MIC (P. aeruginosa; KUB No. 5671, AR Bank #238, no carbapenemase gene): ≤ 0.25 µg/mL; MIC (P. aeruginosa; KUB No. 5672, AR Bank #239, GES-1, VIM-11): 64 µg/mL (≈ 167 µM); MIC (P. aeruginosa; KUB No. 5676, AR Bank #243, VIM-2): 8 µg/mL (≈ 20.9 µM); MIC (P. aeruginosa; KUB No. 5677, AR Bank #244, no carbapenemase gene): 16 µg/mL (≈ 41.7 µM); MIC (P. aeruginosa; KUB No. 5678, AR Bank #245, VIM-2): 8 µg/mL (≈ 20.9 µM); MIC (P. aeruginosa; KUB No. 5684, AR Bank #251, no carbapenemase gene): 1 µg/mL (≈ 2.61 µM); MIC (P. aeruginosa; KUB No. 5685, AR Bank #252, no carbapenemase gene): 2 µg/mL (≈ 5.22 µM); MIC (P. aeruginosa; KUB No. 5686, AR Bank #253, no carbapenemase gene): 0.5 µg/mL (≈ 1.3 µM); MIC (P. aeruginosa; KUB No. 5687, AR Bank #254, VIM-2): 64 µg/mL (≈ 167 µM); MIC (P. aeruginosa; KUB No. 5689, AR Bank #256, no carbapenemase gene): 2 µg/mL (≈ 5.22 µM); MIC (P. aeruginosa; KUB No. 5691, AR Bank #258, no carbapenemase gene): 2 µg/mL (≈ 5.22 µM); MIC (P. aeruginosa; KUB No. 5692, AR Bank #259, no carbapenemase gene): 0.5 µg/mL (≈ 1.3 µM); MIC (P. aeruginosa; KUB No. 5694, AR Bank #261, no carbapenemase gene): 0.5 µg/mL (≈ 1.3 µM); MIC (P. aeruginosa; KUB No. 5695, AR Bank #262, no carbapenemase gene): 0.5 µg/mL (≈ 1.3 µM); MIC (P. aeruginosa; KUB No. 5696, AR Bank #263, no carbapenemase gene): ≤ 0.25 µg/mL; MIC (P. aeruginosa; KUB No. 5697, AR Bank #264, no carbapenemase gene): 2 µg/mL (≈ 5.22 µM); MIC (P. aeruginosa; KUB No. 5698, AR Bank #265, no carbapenemase gene): 8 µg/mL (≈ 20.9 µM); MIC (P. aeruginosa; KUB No. 5699, AR Bank #266, no carbapenemase gene): 8 µg/mL (≈ 20.9 µM); MIC (P. aeruginosa; KUB No. 5700, AR Bank #267, no carbapenemase gene): 2 µg/mL (≈ 5.22 µM); MIC (P. aeruginosa; KUB No. 5701, AR Bank #268, no carbapenemase gene): 16 µg/mL (≈ 41.7 µM); MIC (P. aeruginosa; KUB No. 5702, AR Bank #269, no carbapenemase gene): 8 µg/mL (≈ 20.9 µM); MIC (P. aeruginosa; KUB No. 5703, AR Bank #270, no carbapenemase gene): 2 µg/mL (≈ 5.22 µM); MIC (P. aeruginosa; KUB No. 5704, AR Bank #271, no carbapenemase gene): 8 µg/mL (≈ 20.9 µM); MIC (P. aeruginosa; KUB No. 5705, AR Bank #272, no carbapenemase gene): 2 µg/mL (≈ 5.22 µM); MIC (P. aeruginosa; KUB No. 5747, AR Bank #351, no carbapenemase gene): 16 µg/mL (≈ 41.7 µM); MIC (P. aeruginosa; KUB No. 5749, AR Bank #353, GES-1): 16 µg/mL (≈ 41.7 µM); MIC (P. aeruginosa; KUB No. 5751, AR Bank #355, no carbapenemase gene): 8 µg/mL (≈ 20.9 µM); MIC (P. aeruginosa; KUB No. 5752, AR Bank #356, KPC-2): 32 µg/mL (≈ 83.4 µM)
